Assay results as given in US4738970A, “Benzimidazolyl-thio-tetrahydroquinolines and anti-peptic ulcer compositions containing the same” (Otsuka Pharmaceutical Co., Ltd., priority 1984, dated 1988).

What follows are compounds tested against T1, H^+ -K^+ -ATPase (Sus scrofa, UniProt P19156) (assay: Inhibitory Effect Test for the Activity of H^+ -K^+ -ATPase). Details: H+-K+-ATPase from the stomach of swine; preincubation pH 6.1, room temperature 30 min; reaction pH 7.4, 37° C. 30 min; read-out: IC50 (50% inhibition dosage).
T1 construct: which was prepared from the stomach of swine; from tissue; host or cells: stomach of swine
T1 sequence (P19156 2-1034 limits assumed): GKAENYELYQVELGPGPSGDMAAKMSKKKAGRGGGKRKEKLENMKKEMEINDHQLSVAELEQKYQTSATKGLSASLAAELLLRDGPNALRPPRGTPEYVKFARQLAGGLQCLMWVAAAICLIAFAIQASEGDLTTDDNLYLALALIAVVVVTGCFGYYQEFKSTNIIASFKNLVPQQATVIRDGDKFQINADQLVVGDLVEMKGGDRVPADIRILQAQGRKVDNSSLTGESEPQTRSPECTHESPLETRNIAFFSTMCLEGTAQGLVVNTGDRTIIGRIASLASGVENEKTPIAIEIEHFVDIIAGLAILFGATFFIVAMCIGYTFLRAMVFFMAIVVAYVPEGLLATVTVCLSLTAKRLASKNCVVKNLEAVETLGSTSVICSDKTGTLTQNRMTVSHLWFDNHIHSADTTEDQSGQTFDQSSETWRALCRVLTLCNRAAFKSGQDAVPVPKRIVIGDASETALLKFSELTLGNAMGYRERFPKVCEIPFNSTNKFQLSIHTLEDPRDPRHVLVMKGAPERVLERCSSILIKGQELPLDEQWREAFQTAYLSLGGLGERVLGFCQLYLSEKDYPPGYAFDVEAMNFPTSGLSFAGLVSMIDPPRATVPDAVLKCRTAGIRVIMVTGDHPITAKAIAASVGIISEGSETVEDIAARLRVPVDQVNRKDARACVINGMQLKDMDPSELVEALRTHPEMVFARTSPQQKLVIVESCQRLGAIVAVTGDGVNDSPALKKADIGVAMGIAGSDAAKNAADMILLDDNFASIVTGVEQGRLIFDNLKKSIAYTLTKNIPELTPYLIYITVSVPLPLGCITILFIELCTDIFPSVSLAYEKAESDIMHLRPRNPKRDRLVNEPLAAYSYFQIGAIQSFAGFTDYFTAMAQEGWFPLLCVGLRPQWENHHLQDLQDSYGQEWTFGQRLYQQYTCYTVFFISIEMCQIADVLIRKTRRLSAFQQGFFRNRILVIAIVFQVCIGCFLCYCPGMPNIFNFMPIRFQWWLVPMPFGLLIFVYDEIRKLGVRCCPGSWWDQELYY
T1 sequence (P18434 whole entry partner): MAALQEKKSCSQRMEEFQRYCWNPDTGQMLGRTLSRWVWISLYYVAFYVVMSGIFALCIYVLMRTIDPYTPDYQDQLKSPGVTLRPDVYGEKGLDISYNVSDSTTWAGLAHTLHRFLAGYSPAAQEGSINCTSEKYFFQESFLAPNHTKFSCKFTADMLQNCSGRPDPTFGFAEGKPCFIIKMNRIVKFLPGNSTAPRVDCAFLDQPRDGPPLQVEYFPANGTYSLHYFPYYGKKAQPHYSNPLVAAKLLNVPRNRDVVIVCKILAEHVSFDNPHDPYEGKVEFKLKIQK
Type: biochemical
Experimental: H^+ -K^+ -ATPase (hydrogen-potassium-activated adenosine triphosphatase) (protein content: 10 mcg) which was prepared from the stomach of swine was added to PIPES-tris[buffer PIPES-tris(hydroxymethyl)-2-amino-1,3-propanediol buffer (pH=6.1) containing 2 mM of piperazine-N,N'-bis(2-ethanesulfonic acid)], then the resulting mixture was let allowed to stand at room temperature.
Each of the test compounds was dissolved in dimethylformamide, and the dimethylformamide solution was added to the above-mentioned H^+ -K^+ -ATPase buffer solution so as to adjust the final concentration of the test compound to 1.0%. Each of thus prepared mixture was reacted at room temperature for 30 minutes.
Next, the above-mentioned reaction mixture was divided into two portions, and to the one portion thereof was added 1 ml of 75 mM PIPES-tris buffer solution (pH=7.4) (containing 4 mM of MgCl2, 4 mM of Na2 ATP and 20 mM of KCl), on the other hand, to another portion of the reaction mixture was added 1 ml of 75 mM PIPES-tris buffer solution (pH=7.4) (containing 4 mM of MgCl2 and 4 mM of Na2 ATP), respectively. Each of these two series of sample solutions was separately reacted at 37° C. for 30 minutes. Then to each of these reaction mixtures was added 0.3 ml of 40% trichloroacetic acid to terminate the reaction, and was subjected to centrifugal separation at 3,000 rpm for 10 minutes to obtain the supernatent. Next, the inorganic phosphoric acid formed in the reaction mixture was determined by a method according to the article by C. H. Fiske and Y. Subbarow: J. Biol. Chem., Vol. 66, pages 375-400, (1925). The difference of the value obtained by substracting the quantity of inorganic phosphoric acid determined by using PIPES-tris buffer solution without containing 20 mM of KCl from the quantity of inorganic phosphoric acid determined by using PIPES-tris buffer solution containing 20 mM of KCl, was converted into as activity value of enzyme with respect to the unit protein and unit time.
Inhibitory rate (%) of each of the test compounds was obtained from the activity value of the enzyme at the respective dosages in the test groups and those of obtained from the control group, then IC50 (50% inhibition dosage of each of the test compounds) was calculated from the inhibitory rate (%).
Work on `C=CCOc1c(C)cnc2c1CCCC2[S+]([O-])c1nc2ccccc2[nH]1` (stereo not shown) [Test compound 1, 4-Allyloxy-8-(2-benzimidazolyl)sulfinyl-3-methyl-5,6,7,8-tetrahydroquinoline] yielded an IC50 of 0.74 µM. `C=CCOc1c(C)cnc2c1CCCC2[S+]([O-])c1nc2cc(F)c(F)cc2[nH]1` (stereo not shown) [Test compound 2, 4-Allyloxy-8-(5,6-difluoro-2-benzimidazolyl)-sulfinyl-3-methyl-5,6,7,8-tetrahydroquinoline] was tested, and the IC50 was 1.8 µM. Work on `C#CCOc1c(C)cnc2c1CCCC2[S+]([O-])c1nc2ccc(F)cc2[nH]1` (stereo not shown) [Test compound 3, 8-(5-Fluoro-2-benzimidazolyl)sulfinyl-3-methyl-4-propargyloxy-5,6,7,8-tetrahydroquinoline] yielded an IC50 of 1.1 µM. `C=CCOc1c(C)cnc2c1CCCC2[S+]([O-])c1nc2cc(C)c(C)cc2[nH]1` (stereo not shown) [Test compound 4, 4-Allyloxy-8-(5,6-dimethyl-2-benzimidazolyl)-sulfinyl-3-methyl-5,6,7,8-tetrahydroquinoline] was tested, and the IC50 was 0.61 µM. With `C=CCOc1c(C)cnc2c1CCCC2[S+]([O-])c1nc2cc(Cl)c(Cl)cc2[nH]1` (stereo not shown) [Test compound 5, 4-Allyloxy-8-(5,6-dichloro-2-benzimidazolyl)-sulfinyl-3-methyl-5,6,7,8-tetrahydroquinoline] the IC50 was 0.31 µM. With `C#CCOc1c(C)cnc2c1CCCC2[S+]([O-])c1nc2cc(C)c(C)cc2[nH]1` (stereo not shown) [Test compound 6, 8-(5,6-Dimethyl-2-benzimidazolyl)sulfinyl-3-methyl-4-propargyloxy-5,6,7,8-tetrahydroquinoline] the IC50 was 0.46 µM. `C#CCOc1c(C)cnc2c1CCCC2[S+]([O-])c1nc2ccccc2[nH]1` (stereo not shown) [Test compound 7, 8-(2-Benzimidazolyl)sulfinyl-3-methyl-4-propargyloxy-5,6,7,8-tetrahydroquinoline] showed an IC50 of 1.2 µM. `C#CCOc1c(C)cnc2c1CCCC2[S+]([O-])c1nc2cc(Cl)c(Cl)cc2[nH]1` (stereo not shown) [Test compound 8, 8-(5,6-Dichloro-2-benzimidazolyl)sulfinyl-3-methyl-4-propargyloxy-5,6,7,8-tetrahydroquinoline] gave an IC50 of 0.29 µM. In the case of `COCCOc1c(C)cnc2c1CCCC2[S+]([O-])c1nc2ccccc2[nH]1` (stereo not shown) [Test compound 9, 8-(2-Benzimidazolyl)sulfinyl-4-(2-methoxyethoxy)-3-methyl-5,6,7,8-tetrahydroquinoline], the IC50 is reported as 0.84 µM. Work on `COCCOc1c(C)cnc2c1CCCC2[S+]([O-])c1nc2ccc(F)cc2[nH]1` (stereo not shown) [Test compound 10, 8-(5-Fluoro-2-benzimidazolyl)sulfinyl-4-(2-methoxyethoxy)-3-methyl-5,6,7,8-tetrahydroquinoline] yielded an IC50 of 0.87 µM. For `C=CCOc1c(C)cnc2c1CCCC2[S+]([O-])c1nc2ccc(F)cc2[nH]1` (stereo not shown) [Test compound 11, 4-Allyloxy-8-(5-fluoro-2-benzimidazolyl)-sulfinyl-3-methyl-5,6,7,8-tetrahydroquinoline], the IC50 was 0.73 µM. For `COc1ccc2nc([S+]([O-])C3CCCc4c(C)ccnc43)[nH]c2c1` (stereo not shown) [Test compound 13, 4-Methyl-8-(5-methoxy-2-benzimidazolyl)-sulfinyl-5,6,7,8-tetrahydroquinoline], the IC50 was 1.1 µM. Compound `COc1ccc2nc([S+]([O-])C3CCCc4ccc(C)nc43)[nH]c2c1` (stereo not shown) [Test compound 14, 2-Methyl-8-(5-methoxy-2-benzimidazolyl)-sulfinyl-5,6,7,8-tetrahydroquinoline] has an IC50 of 1.5 µM. Work on `Cc1cnc2c(c1)CCCC2[S+]([O-])c1nc2ccccc2[nH]1` (stereo not shown) [Test compound 15, 3-Methyl-8-(2-benzimidazolyl)sulfinyl-5,6,7,8-tetrahydroquinoline] yielded an IC50 of 1.8 µM. With `Cc1cnc2c(c1)CCCC2[S+]([O-])c1nc2ccc(C)cc2[nH]1` (stereo not shown) [Test compound 16, 3-Methyl-8-(5-methyl-2-benzimidazolyl)-sulfinyl-5,6,7,8-tetrahydroquinolin] the IC50 was 1.1 µM. Compound `CC(=O)c1ccc2nc([S+]([O-])C3CCCc4cc(C)cnc43)[nH]c2c1` (stereo not shown) [Test compound 18, 3-Methyl-8-(5-acetyl-2-benzimidazolyl)-sulfinyl-5,6,7,8-tetrahydroquinoline] has an IC50 of 3.2 µM. Compound `COc1cc2nc([S+]([O-])C3CCCc4cc(C)cnc43)[nH]c2cc1OC` (stereo not shown) [Test compound 19, 3-Methyl-8-(5,6-dimethoxy-2-benzimidazolyl)-sulfinyl-5,6,7,8-tetrahydroquinoline] has an IC50 of 3.1 µM. `COc1ccc2nc([S+]([O-])C3CCCc4ccc(Cl)nc43)[nH]c2c1` (stereo not shown) [Test compound 21, 2-Chloro-8-(5-methoxy-2-benzimidazolyl)-sulfinyl-5,6,7,8-tetrahydroquinoline] gave an IC50 of 2.7 µM. In the case of `COc1ccc2nc([S+]([O-])C3CCCc4cc(C)c(Cl)nc43)[nH]c2c1` (stereo not shown) [Test compound 22, 2-Chloro-3-methyl-8-(5-methoxy-2-benzimidazolyl)sulfinyl-5,6,7,8-tetrahydroquinoline], the IC50 is reported as 2.1 µM. `COc1ccc2nc([S+]([O-])C3CCCc4cccnc43)[nH]c2c1` (stereo not shown) [Test compound 23, 8-(5-Methoxy-2-benzimidazolyl)sulfinyl-5,6,7,8-tetrahydroquinoline] showed an IC50 of 1.9 µM. `COc1ccc2nc([S+]([O-])C3CCCc4c(OC)ccnc43)[nH]c2c1` (stereo not shown) [Test compound 24, 4-Methoxy-8-(5-methoxy-2-benzimidazolyl)-sulfinyl-5,6,7,8-tetrahydroquinoline] showed an IC50 of 7.6 µM. In the case of `COc1ccnc2c1CCCC2[S+]([O-])c1nc2ccc(C(F)(F)F)cc2[nH]1` (stereo not shown) [Test compound 25, 4-Methoxy-8-(5-trifluoromethyl-2-benzimidazolyl)sulfinyl-5,6,7,8-tetrahydroquinoline], the IC50 is reported as 2.9 µM. `Cc1cnc2c(c1)CCCC2[S+]([O-])c1nc2ccc(C(F)(F)F)cc2[nH]1` (stereo not shown) [Test compound 27, 3-Methyl-8-(5-trifluoromethyl-2-benzimidazolyl)sulfinyl-5,6,7,8-tetrahydroquinoline] was tested, and the IC50 was 1.5 µM. `[O-][S+](c1nc2ccc(C(F)(F)F)cc2[nH]1)C1CCCc2cccnc21` (stereo not shown) [Test compound 28, 8-(5-Trifluoromethyl-2-benzimidazolyl)-sulfinyl-5,6,7,8-tetrahydroquinoline] was tested, and the IC50 was 1.9 µM. `COc1ccc2nc([S+]([O-])C3CCCc4ccc(O)nc43)[nH]c2c1` (stereo not shown) [Test compound 29, 2-Hydroxy-8-(5-methoxy-2-benzimidazolyl)-sulfinyl-5,6,7,8-tetrahydroquinoline] gave an IC50 of 2.3 µM. In the case of `COc1cc2nc([S+]([O-])C3CCCc4cccnc43)[nH]c2cc1OC` (stereo not shown) [Test compound 30, 8-(5,6-Dimethoxy-2-benzimidazolyl)sulfinyl-5,6,7,8-tetrahydroquinoline], the IC50 is reported as 0.93 µM. Work on `O=[N+]([O-])c1ccc2nc([S+]([O-])C3CCCc4cccnc43)[nH]c2c1` (stereo not shown) [Test compound 31, 8-(5-Nitro-2-benzimidazolyl)sulfinyl-5,6,7,8-tetrahydroquinoline] yielded an IC50 of 2.9 µM. In the case of `Cc1cccc2nc([S+]([O-])C3CCCc4cccnc43)[nH]c12` (stereo not shown) [Test compound 33, 8-(4-Methyl-2-benzimidazolyl)sulfinyl-5,6,7,8-tetrahydroquinoline], the IC50 is reported as 2.6 µM. `COc1c(C)cnc2c1CCCC2[S+]([O-])c1nc2ccc(F)cc2[nH]1` (stereo not shown) [Test compound 34, 3-Methyl-4-methoxy-8-(5-fluoro-2-benzimidazolyl)sulfinyl-5,6,7,8-tetrahydroquinoline] gave an IC50 of 0.22 µM. `COc1c(C)cnc2c1CCCC2[S+]([O-])c1nc2ccccc2[nH]1` (stereo not shown) [Test compound 35, 3-Methyl-4-methoxy-8-(2-benzimidazolyl)-sulfinyl-5,6,7,8-tetrahydroquinoline] was tested, and the IC50 was 0.25 µM. Work on `[O-][S+](c1nc2cc(Cl)c(Cl)cc2[nH]1)C1CCCc2cccnc21` (stereo not shown) [Test compound 36, 8-(5,6-Dichloro-2-benzimidazolyl)sulfinyl-5,6,7,8-tetrahydroquinoline] yielded an IC50 of 0.7 µM. `CCOc1cc2[nH]c([S+]([O-])C3CCCc4cccnc43)nc2cc1F` (stereo not shown) [Test compound 37, 8-(5-Ethoxy-6-fluoro-2-benzimidazolyl)-sulfinyl-5,6,7,8-tetrahydroquinoline] was tested, and the IC50 was 3.4 µM. Compound `COc1c(C)cnc2c1CCCC2[S+]([O-])c1nc2cc(C)c(C)cc2[nH]1` (stereo not shown) [Test compound 38, 3-Methyl-4-methoxy-8-(5,6-dimethyl-2-benzimidazolyl)sulfinyl-5,6,7,8-tetrahydroquinoline] has an IC50 of 0.34 µM. For `Cc1cnc2c(c1)C([S+]([O-])c1nc3ccc(C(F)(F)F)cc3[nH]1)CCC2` (stereo not shown) [Test compound 39, 3-Methyl-5-(5-trifluoromethyl-2-benzimidazolyl)sulfinyl-5,6,7,8-tetrahydroquinoline], the IC50 was 2.98 µM.
